Relative viability data for one cell line are collected here from the supplement of paper PMC10307832.

Holding throughout (test): relative viability (nuclei count vs DMSO), 5 days (fraction); higher = more cells survive
Compound in the assay “Halofuginone + Alpelisib”: O=C(C[C@H]1NCCC[C@@H]1O)Cn1cnc2cc(Br)c(Cl)cc2c1=O (racemic) [Halofuginone] + Cc1nc(NC(=O)N2CCC[C@H]2C(N)=O)sc1-c1ccnc(C(C)(C)C(F)(F)F)c1 [Alpelisib] (partner 2 µM)
A digest of the protocol:
(§1)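 A single step with final 0.05% Triton X-100, 1% formaldehyde and 1 ug/ml Hoechst fixed the cells and stained nuclei 5 days after treatment. Lung cancer cell lines in 1536-well plates had been treated by pin tool the day after seeding with one drug alone or a fixed anchor-drug dose plus five library-drug doses (not always all listed) in √10 steps, and nuclei were counted on 4× images. Relative viability is the ratio of nuclei in treated wells to nuclei in vehicle wells, taken as the median of duplicate plates.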

Compound in the assay “Decitabine + Vorinostat”: Nc1ncn([C@H]2C[C@H](O)[C@@H](CO)O2)c(=O)n1 [Decitabine] + O=C(CCCCCCC(=O)Nc1ccccc1)NO [Vorinostat] (partner 1 µM)
Summed up: as §1

Compound in the assay “Cediranib + Lapatinib”: COc1cc2c(Oc3ccc4[nH]c(C)cc4c3F)ncnc2cc1OCCCN1CCCC1 [Cediranib] + CS(=O)(=O)CCNCc1ccc(-c2ccc3ncnc(Nc4ccc(OCc5cccc(F)c5)c(Cl)c4)c3c2)o1 [Lapatinib] (partner 2 µM)
Summed up: as §1

Compound in assay [1]: O=C(C[C@H]1NCCC[C@@H]1O)Cn1cnc2cc(Br)c(Cl)cc2c1=O (racemic) [Halofuginone] + C[C@]1(O)C[C@@H](c2nc(-c3ccc4ccc(-c5ccccc5)nc4c3)c3c(N)nccn32)C1 [Linsitinib] (partner 1 µM)
Summed up:
as §1

For UMC-11, the relative viability in the assay with Halofuginone + Alpelisib (first compound 0.001 µM) turned out to be 1.04; in the assay with Halofuginone + Alpelisib (first compound 0.003162 µM), 0.909; with Halofuginone + Alpelisib (first compound 0.01 µM), 0.989; with Halofuginone + Alpelisib (first compound 0.03162 µM), 0.885; in the assay with Halofuginone + Alpelisib (first compound 0.1 µM), 0.457; with Decitabine + Vorinostat (first compound 0.04 µM), 0.269. The relative viability was determined as 0.263 in the assay with Decitabine + Vorinostat (first compound 0.1265 µM); 0.236 in the assay with Decitabine + Vorinostat (first compound 0.4 µM); 0.19 in the assay with Decitabine + Vorinostat (first compound 1.265 µM); 0.193 with Decitabine + Vorinostat (first compound 4 µM); 1.07 with Cediranib + Lapatinib (first compound 0.04 µM); 0.48 in the assay with Cediranib + Lapatinib (first compound 0.1265 µM). Moreover, the relative viability with Cediranib + Lapatinib (first compound 0.4 µM) amounted to 0.938; with Cediranib + Lapatinib (first compound 1.265 µM), 0.525; with Cediranib + Lapatinib (first compound 4 µM), 0.963; in assay [1] (first compound 0.001 µM), 1.09; in assay [1] (first compound 0.003162 µM) it was 0.99; in assay [1] (first compound 0.01 µM), 1.03. Also, the relative viability in assay [1] (first compound 0.03162 µM) worked out at 0.963; in assay [1] (first compound 0.1 µM), 0.752.
